According to patent US10251885B2, “Azole antifungal compositions” (ALLERGAN PHARMACEUTICALS INTERNATIONAL LIMITED, priority 2009, dated 2019):
Converted amounts (≈) assume the structure as drawn.

What was measured:
T. mentagrophytes [1] = assay: Microdilution assay, minimum inhibitory concentration (MIC); assay type: cell-based, Trichophyton mentagrophytes; details: n = 5 strains; for MIC50 / MIC90: Trichophyton mentagrophytes
Protocol: (§1) Multiple strains of Trichophyton rubrum, Trichophyton mentagrophytes and Epidermophyton flucossum were obtained from the culture collection facility at the Center for Medical Mycology (University Hospitals of Cleveland/Case Western Reserve University, Cleveland, Ohio). The minimum inhibitory concentration (MICs) for albaconazole, ciclopirox and terbinafine against each dermatophyte strain was determined according to the method approved by the CLSI Antifungal Subcommittee as a reference method for determining dermatophyte susceptibilities (Ghannoum et al., J. Clin. Microbiol. 42: 2977-2979, 2004). […] Microbiol. Infect. Dis. 45:203-206, 2003.
(§2) Tables 1 and 2 describe the minimum inhibitory concentrations (in ug/mL) and the minimum fungicidal concentrations (in ug/mL), respectively, for the active agents against the dermatophyte strains.

E. flucossum [2] = assay: Microdilution assay, minimum fungicidal concentration (MFC); assay type: cell-based, Epidermophyton flucossum; details: n = 5 strains
Protocol: as §1, §2

T. mentagrophytes [3] = assay: as above; assay type: cell-based, Trichophyton mentagrophytes; details: n = 5 strains
Protocol: as §1, §2

All Dermatophytes [4] = assay: Microdilution assay, minimum inhibitory concentration (MIC); assay type: cell-based; details: for MIC50 / MIC90 / MIC Range: All Dermatophytes, n = 15 strains
Protocol: as §1, §2

T. rubrum [5] = assay: as above; assay type: cell-based, Trichophyton rubrum; details: n = 2 strains; for MIC50 / MIC90: Trichophyton rubrum
Protocol: as §1, §2

[6] = system: T. rubrum elevated terbinafine (MIC); assay: as above; assay type: cell-based, Trichophyton rubrum; details: for MIC Range / MIC50 / MIC90: T. rubrum elevated terbinafine (MIC), n = 3 strains; for MIC50 / MIC90: Trichophyton rubrum
Protocol: as §1, §2

E. flucossum [7] = assay: as above; assay type: cell-based, Epidermophyton flucossum; details: n = 5 strains; for MIC50 / MIC90: Epidermophyton
Protocol: as §1, §2

T. rubrum [8] = assay: Microdilution assay, minimum fungicidal concentration (MFC); assay type: cell-based, Trichophyton rubrum; details: n = 2 strains
Protocol: as §1, §2

[9] = system: T. rubrum elevated terbinafine (MIC); assay: as above; assay type: cell-based, Trichophyton rubrum; details: n = 3 strains
Protocol: as §1, §2

All Dermatophytes [10] = assay: as above; assay type: cell-based; details: for MFC50 / MFC90 / MFC Range: All Dermatophytes, n = 15 strains
Protocol: as §1, §2

| MIC50 (T. mentagrophytes [1]) [µg/mL] | MIC90 (T. mentagrophytes [1]) [µg/mL] | MIC Range (T. mentagrophytes [1]) [µg/mL] | MIC50 (All Dermatophytes [4]) [µg/mL] | MIC90 (All Dermatophytes [4]) [µg/mL] | MIC50 (T. rubrum [5]) [µg/mL] | MIC90 (T. rubrum [5]) [µg/mL] | MIC Range (T. rubrum [5]) [µg/mL] | MIC Range [6] [µg/mL] | MIC50 [6] [µg/mL] | MIC90 [6] [µg/mL] | MIC50 (E. flucossum [7]) [µg/mL] | MIC90 (E. flucossum [7]) [µg/mL] | MIC Range (E. flucossum [7]) [µg/mL] | Compound | MFC50 (E. flucossum [2]) [µg/mL] | MFC90 (E. flucossum [2]) [µg/mL] | MFC50 (T. mentagrophytes [3]) [µg/mL] | MFC90 (T. mentagrophytes [3]) [µg/mL] | MFC50 (T. rubrum [8]) [µg/mL] | MFC90 (T. rubrum [8]) [µg/mL] | also measured |
| --- | --- | --- | --- | --- | --- | --- | --- | --- | --- | --- | --- | --- | --- | --- | --- | --- | --- | --- | --- | --- | --- |
| 0.25 (≈ 1.21 µM) | 0.25 (≈ 1.21 µM) | 0.12 to 0.25 | 0.12 (≈ 0.579 µM) | 0.25 (≈ 1.21 µM) | 0.12 (≈ 0.579 µM) | 0.12 (≈ 0.579 µM) | 0.12 (≈ 0.579 µM) | 0.12 (≈ 0.579 µM) | 0.12 (≈ 0.579 µM) | 0.12 (≈ 0.579 µM) | 0.12 (≈ 0.579 µM) | 0.12 (≈ 0.579 µM) | 0.12 (≈ 0.579 µM) | Cc1cc(C2CCCCC2)n(O)c(=O)c1 [Ciclopirox, ciclopirox] | 4 (≈ 19.3 µM) | >32 | >32 | >32 | 16 (≈ 77.2 µM) | 32 (≈ 154 µM) | MFC Range (T. rubrum [8]): 16 to 32 µg/mL; MFC50 [9]: 16 µg/mL (≈ 77.2 µM); MFC90 [9]: >32 µg/mL; MFC50 (All Dermatophytes [10]): 16 µg/mL (≈ 77.2 µM); MFC90 (All Dermatophytes [10]): >32 µg/mL |
| 0.12 (≈ 0.278 µM) | 0.5 (≈ 1.16 µM) | 0.12 to 0.5 | 0.06 (≈ 0.139 µM) | 0.25 (≈ 0.579 µM) | 0.06 (≈ 0.139 µM) | 0.06 (≈ 0.139 µM) | 0.06 (≈ 0.139 µM) | 0.015 to 0.25 | 0.06 (≈ 0.139 µM) | 0.25 (≈ 0.579 µM) | 0.015 (≈ 0.0347 µM) | 0.015 (≈ 0.0347 µM) | 0.008 to 0.015 | C[C@@H](n1cnc2cc(Cl)ccc2c1=O)[C@](O)(Cn1cncn1)c1ccc(F)cc1F [Albaconazole, (1R,2R)-7-chloro-3-[2-(2,4-difluorophenyl)-2-hydroxy-1-methyl-3-(1H-1,2,4-triazol-1yl)propyl]quinazolin-4(3H)-one] | 0.25 (≈ 0.579 µM) | 8 (≈ 18.5 µM) | 1 (≈ 2.32 µM) | 8 (≈ 18.5 µM) | 0.5 (≈ 1.16 µM) | 8 (≈ 18.5 µM) | MFC Range (E. flucossum [2]): 0.06 to 8 µg/mL; MFC Range (T. mentagrophytes [3]): 0.5 to 8 µg/mL; MIC Range (All Dermatophytes [4]): 0.008 to 0.5 µg/mL; MICs overall, compared with ciclopirox and terbinafine (All Dermatophytes [4]; overall, in words): lower than those for ciclopirox and similar to those for terbinafine; effectiveness against terbinafine-resistant Trichophyton rubrum strains ([6]; compared with terbinafine, in words): more effective; MFC Range (T. rubrum [8]): 0.5 to 8 µg/mL; MFC50 [9]: 0.25 µg/mL (≈ 0.579 µM); MFC90 [9]: 1 µg/mL (≈ 2.32 µM); MFC Range [9]: 0.06 to 1 µg/mL; MFC50 (All Dermatophytes [10]): 0.5 µg/mL (≈ 1.16 µM); MFC90 (All Dermatophytes [10]): 8 µg/mL (≈ 18.5 µM); MFC Range (All Dermatophytes [10]): 0.06 to 8 µg/mL; MFCs overall, compared with ciclopirox and terbinafine (All Dermatophytes [10]; overall, in words): lower than those for ciclopirox and similar to those for terbinafine |
| 0.002 (≈ 0.00686 µM) | 0.004 (≈ 0.0137 µM) | 0.002 to 0.004 | 0.002 (≈ 0.00686 µM) | 8 (≈ 27.5 µM) | 0.002 (≈ 0.00686 µM) | 0.002 (≈ 0.00686 µM) | 0.002 (≈ 0.00686 µM) | 8 to 32 | 8 (≈ 27.5 µM) | 32 (≈ 110 µM) | 0.002 (≈ 0.00686 µM) | 0.008 (≈ 0.0275 µM) | 0.002 to 0.008 | CN(C/C=C/C#CC(C)(C)C)Cc1cccc2ccccc12 [Terbinafine, terbinafine] | 0.03 (≈ 0.103 µM) | 0.03 (≈ 0.103 µM) | 0.015 (≈ 0.0515 µM) | 0.03 (≈ 0.103 µM) | 0.008 (≈ 0.0275 µM) | 0.008 (≈ 0.0275 µM) | MFC Range (T. mentagrophytes [3]): 0.015 to 0.03 µg/mL; MIC Range (All Dermatophytes [4]): 0.002 to 32 µg/mL; MFC Range (T. rubrum [8]): 0.008 µg/mL (≈ 0.0275 µM); MFC50 [9]: 32 µg/mL (≈ 110 µM); MFC90 [9]: >64 µg/mL; MFC50 (All Dermatophytes [10]): 0.015 µg/mL (≈ 0.0515 µM); MFC90 (All Dermatophytes [10]): 32 µg/mL (≈ 110 µM); MFC Range (All Dermatophytes [10]): 0.008 µg/mL (≈ 0.0275 µM) |
